Test results: patent US20240174596A1 (Northwestern University, priority 2021, published 2024)
Structures can show the parent of a compound that is named as a salt.

Experiments:
hOAT [1] = biological target: T1, hOAT (Homo sapiens, UniProt P04181); experiment: Fluoride ion release assay; format: biochemical
T1 construct: made in house; host or cells: E. coli BL21(DE3)
T1 sequence (P04181 26-439): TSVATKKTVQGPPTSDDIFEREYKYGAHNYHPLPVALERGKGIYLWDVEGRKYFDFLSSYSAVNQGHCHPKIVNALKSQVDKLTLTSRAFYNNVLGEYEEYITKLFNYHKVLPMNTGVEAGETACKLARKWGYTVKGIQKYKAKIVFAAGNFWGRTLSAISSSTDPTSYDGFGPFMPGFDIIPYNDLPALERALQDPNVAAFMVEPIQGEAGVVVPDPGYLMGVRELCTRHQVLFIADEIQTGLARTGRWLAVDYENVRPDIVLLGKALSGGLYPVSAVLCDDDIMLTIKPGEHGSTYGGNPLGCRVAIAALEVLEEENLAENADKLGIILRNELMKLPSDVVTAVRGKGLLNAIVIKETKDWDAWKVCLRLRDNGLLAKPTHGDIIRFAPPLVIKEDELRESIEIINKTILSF
Protocol: The fluoride ion release assay was conducted using previous protocols.^10 The final concentration of enzyme in the sample was determined via BCA protein assay kit (Pierce, cat: 23225). A calibration curve of voltage (V, mV) was generated from varying concentrations of NaF (F, μM). For accurate detection of fluoride ion concentration, 10 μM of fluoride ion was added to each control and sample The number of fluoride ions released per active site was calculated by the ratio of the fluoride ion release concentration and enzyme concentration.

[2] = Plasma protein binding, mouse; format: in vitro ADME
CYP 3A4 = CYP 3A4 (Homo sapiens, UniProt P08684); experiment: CYP inhibition 3A4; format: in vitro ADME
CYP 3A4, sequence (P08684 whole entry): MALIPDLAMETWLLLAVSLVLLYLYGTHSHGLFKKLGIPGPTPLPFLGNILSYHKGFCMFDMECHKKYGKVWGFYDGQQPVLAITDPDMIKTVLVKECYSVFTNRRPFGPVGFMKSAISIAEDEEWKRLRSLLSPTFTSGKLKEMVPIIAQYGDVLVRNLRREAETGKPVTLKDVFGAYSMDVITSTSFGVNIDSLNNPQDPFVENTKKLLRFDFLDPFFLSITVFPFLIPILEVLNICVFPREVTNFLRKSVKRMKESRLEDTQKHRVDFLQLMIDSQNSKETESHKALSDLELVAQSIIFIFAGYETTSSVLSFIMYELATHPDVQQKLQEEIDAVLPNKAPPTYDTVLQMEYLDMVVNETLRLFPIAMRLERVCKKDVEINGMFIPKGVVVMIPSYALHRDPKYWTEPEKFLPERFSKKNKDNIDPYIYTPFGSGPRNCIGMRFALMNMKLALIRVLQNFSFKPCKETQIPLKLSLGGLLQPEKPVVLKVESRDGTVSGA

hOAT [3] = biological target: T1, hOAT; experiment: Time-dependent inactivation of hOAT; format: biochemical
Protocol: All reagents for enzyme purification and assays were purchased from Sigma-Aldrich (St. Louis, MO, USA). Human OAT (0.672 mg/mL) was purified from E. coli BL21 (DE3) cells following the procedure described above, and coenzyme human recombinant pyrroline 5-carboxylate reductase (PYCRI) were expressed, grown, and purified according to a literature procedure.^4 γ-Aminobutyric acid aminotransferase (GABA-AT, 0.4 mg/mL) was purified from pig brain following a procedure described previously^5, and coenzyme succinic semialdehyde dehydrogenase (SSDH) was purified from GABase (catalog No. G7509-25UN, Sigma-Aldrich), a commercially available mixture of SSDH and GABA-AT, using a known procedure.^6 Commercially available L-aspartate aminotransferase (Asp-AT) from the porcine heart (catalog No. G2751-2KU, Sigma-Aldrich) and the desired assay coenzyme malic dehydrogenase from porcine (catalog No. M2634-5KU, Sigma-Aldrich), and L-alanine aminotransferase (Ala-AT) from the porcine heart (catalog No. G8255-200UN, Sigma-Aldrich) and the desired assay coenzyme lactate dehydrogenase from porcine (catalog No. 427211-50KU, Sigma-Aldrich) were used directly without further purification. All the enzyme assays for the inactivation, partition ratio, and dialysis experiment were recorded on a Synergy H1 hybrid multimode microplate reader (Biotek, USA) with transparent 96-well plates.
Time-dependent inactivation against hOAT was performed using an optimized procedure published previously.^7 10 μL of hOAT (0.025 mg/mL) was preincubated with 10 μL of various concentrations of tested compounds in 100 mM potassium pyrophosphate buffer (pH 8.0, 5 mM α-ketoglutarate, and 5 mM β-mercaptoethanol) at 25° C. in a 96-well plate. At time intervals, 80 μL of assay solution containing PYCR^1 (0.5 μg), 1 mM NADH, and 25 mM L-ornithine in the abovementioned potassium pyrophosphate buffer were added to the incubation mixture and assayed for OAT activity at 37° C. for 30 min. The change in UV absorbance at 340 nm at 37° C. based on the conversion of NADH to NAD was monitored by a microplate reader. All assays were performed in duplicate, and the remaining OAT activity at each preincubation time at each inhibitor concentration was averaged. The natural logarithm of the percentage of the remaining OAT activity was plotted against the preincubation time at each inhibitor concentration to obtain the kobs (slope) value for each concentration. The kobs value is the rate constant describing the inactivation at each inhibitor concentration. kobs is replotted against the inhibitor concentration using nonlinear regression analysis using GraphPad Prism 8.0. K1 and kinact values were estimated from equation (1)
where kinact is the maximal rate of inactivation, K1 is the inhibitor concentration required for half-maximal inactivation, and [I] is the preincubation concentration of the tested compound.

CYP 2D6 = CYP 2D6 (Homo sapiens, UniProt P10635); experiment: CYP inhibition 2D6; format: in vitro ADME
CYP 2D6, sequence (P10635 whole entry): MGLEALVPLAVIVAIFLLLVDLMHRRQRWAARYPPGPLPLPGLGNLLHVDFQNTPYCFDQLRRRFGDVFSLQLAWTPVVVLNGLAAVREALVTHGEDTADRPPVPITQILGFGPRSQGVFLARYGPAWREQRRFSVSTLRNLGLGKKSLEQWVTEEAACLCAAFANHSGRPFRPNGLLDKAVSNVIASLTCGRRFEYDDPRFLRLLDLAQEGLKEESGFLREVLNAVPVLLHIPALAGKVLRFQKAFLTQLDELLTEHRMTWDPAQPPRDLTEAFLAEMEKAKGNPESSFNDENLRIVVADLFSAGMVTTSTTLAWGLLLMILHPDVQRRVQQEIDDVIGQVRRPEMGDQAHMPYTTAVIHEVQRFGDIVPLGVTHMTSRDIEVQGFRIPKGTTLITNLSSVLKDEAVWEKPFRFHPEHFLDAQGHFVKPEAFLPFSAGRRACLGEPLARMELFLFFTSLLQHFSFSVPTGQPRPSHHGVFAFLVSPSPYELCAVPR

hOAT [4] = biological target: T1, hOAT; experiment: Time-dependent dialysis of inhibited hOAT; format: biochemical; conditions: up to 48 h against buffer with excessive PLP and α-KG
Protocol: Plausible Inactivation Mechanisms of SS-1-148 with hOAT. The irreversibility of the inhibition of hOAT by SS-1-148 was evaluated by a time-dependent dialysis experiment up to 48 h against a buffer consisting of excessive PLP and α-KG (FIG. 10). […] To reveal the structure of the final product in the inactivation reaction, we co-crystallized hOAT with an excessive amount of SS-1-148. […] It also contains three copies of the protein monomer in one asymmetric unit. Similar to the soaking crystal structure shown in FIG. 4A, PLP is covalently linked to SS-1-148 moiety in the cocrystal structure. However, no covalent bond is noticed between Lys292 and the final product. Moreover, in the published crystal structure of the native enzyme (holo-hOAT), Arg413 typically forms a salt bridge with Glu235, which is found intact for several cocrystals of hOAT with different inactivators.^14, 23, 26 In the hOAT/SS-1-148 soaking result (FIG. 4A), the salt bridge of Arg413-Glu235 is broken due to the existence of an alternative salt bridge between the carboxylate of one intermediate and Arg413. […] Instead, Arg413, Gln266, and the final product are hydrogen-bonded to the same water molecule.
The dialysis experiment was conducted using previous protocols.^8-10

**Q.** Which “fluoride ion released per inactivation event” value (hOAT [1]) does the source give for `N[C@H]1C=C(C(=O)O)CC1(F)F` [SS-1-148, (S)-3-Amino-4,4-difluorocyclopent-1-enecarboxylic acid hydrochloric acid salt] here?
**A.** 33.9±0.8 equivalents

**Q.** And the Fluoride ion release (hOAT [1]; without α-KG, triplicate, mean with standard deviation)?
**A.** 33.9 ± 0.8

**Q.** What about the fraction unbound [2] of the same compound?
**A.** 1

**Q.** What about the IC50 (CYP 3A4) of the same compound?
**A.** > 100 µM

**Q.** And the “improvement of inactivation efficiency (kinact/K1) relative to parent compound 4” value (hOAT [3])?
**A.** 444 fold

**Q.** What about the “type of inhibition on hOAT” value (hOAT [3]) of the same compound?
**A.** irreversible inhibitor

**Q.** And the kinact/KI (hOAT [3]; inactivation efficiency)?
**A.** 22.2 M⁻¹ s⁻¹

**Q.** And the kinact (hOAT [3]; mean and standard error)?
**A.** 0.00133 s⁻¹

**Q.** And the IC50 (CYP 2D6)?
**A.** > 100 µM

**Q.** And the “remaining activity of hOAT after dialysis” value (hOAT [4])?
**A.** unchanged
